Tests used:
[1] = tested on: Pseudomonas aeruginosa UI-18: Wild-type (PA-7); experiment: MIC determination (CLSI), strain PA-7; assay type: cell-based; conditions: strain PA-7, unit assumed
How it was run: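 Strain tested was P. aeruginosa UI-18, a wild-type isolate labelled PA-7. Minimum inhibitory concentrations followed CLSI dilution methodology for aerobically growing bacteria (M7-A7, M100-S18).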

[2] = tested on: Escherichia coli EC-1: VOGEL, mouse virulent; experiment: MIC determination (CLSI), strain EC-1; assay type: cell-based; conditions: strain EC-1, unit assumed
How it was run: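 The mouse-virulent VOGEL isolate of E. coli, EC-1, served as test organism. Minimum inhibitory concentration was measured by CLSI dilution methodology (M7-A7; M100-S18 standards).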

[3] = generated in the same manner as in Table 4

Structure (SMILES) | PA-7 (MIC) [1] | EC-1 (MIC) [2] | PA-7 (MIC) [1, 3] | EC-1 (MIC) [2, 3]
CCOc1ccc(-c2ccn(CC[C@](C)(C(=O)NO)S(C)(=O)=O)c(=O)c2)cc1 [Example 332, (2R)-4-[4-(4-ethoxyphenyl)-2-oxopyridin-1(2H)-yl]-N-hydroxy-2-methyl-2-(methylsulfonyl)butanamide] | 0.5 µg/mL | 64 µg/mL |  | 
CC(CCn1ccc(-c2cccc(C#N)c2)cc1=O)(C(=O)NO)S(C)(=O)=O (centres unmarked) [Example 169, 4-[4-(3-cyanophenyl)-2-oxopyridin-1(2H)-yl]-N-hydroxy-2-methyl-2-(methylsulfonyl)butanamide] |  |  | 64 µg/mL | > 64 µg/mL
COc1ccc(-c2ccn(CCC(C)(C(=O)NO)S(C)(=O)=O)c(=O)c2)c(C)n1 (centres unmarked) [Example 200, N-hydroxy-4-(6-methoxy-2-methyl-2′-oxo-3,4′-bipyridin-1′(2′H)-yl)-2-methyl-2-(methylsulfonyl)butanamide] | 16 µg/mL | 32 µg/mL |  | 
CC(CCn1ccc(-c2cc3ccccc3[nH]2)cc1=O)(C(=O)NO)S(C)(=O)=O (centres unmarked) [Example 91] |  |  | 16 µg/mL | 4 µg/mL
C[C@@](CCn1ccc(-c2ccc(Oc3ccccn3)cc2)cc1=O)(C(=O)NO)S(C)(=O)=O [Example 436, (2R)-N-hydroxy-2-methyl-2-(methylsulfonyl)-4-{2-oxo-4-[4-(pyridin-2-yloxy)phenyl]pyridin-1(2H)-yl}butanamide] | 2 µg/mL | 0.5 µg/mL |  | 
Cc1cn(CCC(C)(C(=O)NO)S(C)(=O)=O)c(=O)cc1-c1ccccc1 (centres unmarked) [Example 284, N-hydroxy-2-methyl-4-(5-methyl-2-oxo-4-phenylpyridin-1(2H)-yl)-2-(methylsulfonyl)butanamide] | 64 µg/mL | 32 µg/mL |  | 
Cn1nnc(-c2ccc(-c3ccn(CC[C@](C)(C(=O)NO)S(C)(=O)=O)c(=O)c3)cc2)n1 [Example 376] | 2 µg/mL | 0.5 µg/mL |  | 
Cc1nnn(-c2ccc(-c3ccn(CC[C@](C)(C(=O)NO)S(C)(=O)=O)c(=O)c3)cc2)c1C [Example 416, (2R)-4-{4-[4-(4,5-dimethyl-1H-1,2,3-triazol-1-yl)phenyl]-2-oxopyridin-1(2H)-yl}-N-hydroxy-2-methyl-2-(methylsulfonyl)butanamide] | 32 µg/mL | 64 µg/mL |  | 
Cc1ccc(-c2ccn(CC[C@](C)(C(=O)NO)S(C)(=O)=O)c(=O)c2)cc1C#N [Example 476] | 8 µg/mL | 16 µg/mL |  | 
CC1(O)CCC(Oc2ccc(-c3ccn(CC[C@](C)(C(=O)NO)S(C)(=O)=O)c(=O)c3)c(F)c2)CC1 (stereo partly drawn) [Example 326, (2R)-4-[4-{2-fluoro-4-[(4-hydroxy-4-methylcyclohexyl)oxy]phenyl}-2-oxopyridin-1(2H)-yl]-N-hydroxy-2-methyl-2-(methylsulfonyl)butanamide] | 4 µg/mL | 0.5 µg/mL |  | 
CC(CCn1ccc(-c2cc(O)ccc2Cl)cc1=O)(C(=O)NO)S(C)(=O)=O (centres unmarked) [Example 204, 4-[4-(2-chloro-5-hydroxyphenyl)-2-oxopyridin-1(2H)-yl]-N-hydroxy-2-methyl-2-(methylsulfonyl)butanamide] | > 64 µg/mL | 64 µg/mL |  | 
CC(CCn1ccc(-c2ccc(-c3cccnc3)c(F)c2)cc1=O)(C(=O)NO)S(C)(=O)=O (centres unmarked) [Example 297, 4-[4-(3-fluoro-4-pyridin-3-ylphenyl)-2-oxopyridin-1(2H)-yl]-N-hydroxy-2-methyl-2-(methylsulfonyl)butanamide] | 2 µg/mL | 1 µg/mL |  | 
CC(CCn1ccc(-c2ccc3c(ccn3CCO)c2)cc1=O)(C(=O)NO)S(C)(=O)=O (centres unmarked) [Example 265, N-hydroxy-4-{4-[1-(2-hydroxyethyl)-1H-indol-5-yl]-2-oxopyridin-1(2H)-yl}-2-methyl-2-(methylsulfonyl)butanamide] | 16 µg/mL | 4 µg/mL |  | 
COc1ncc(-c2ccc(-c3ccn(CC[C@](C)(C(=O)NO)S(C)(=O)=O)c(=O)c3)cc2)cn1 [Example 410, (2R)-N-hydroxy-4-{4-[4-(2-methoxypyrimidin-5-yl)phenyl]-2-oxopyridin-1(2H)-yl}-2-methyl-2-(methylsulfonyl)butanamide] | 1 µg/mL | 0.5 µg/mL |  | 
C[C@@](CCn1ccc(-c2ccc(-n3ccnc3)cc2)cc1=O)(C(=O)NO)S(C)(=O)=O [Example 388, (2R)-N-hydroxy-4-{4-[4-(1H-imidazol-1-yl)phenyl]-2-oxopyridin-1(2H)-yl}-2-methyl-2-(methylsulfonyl)butanamide] | 16 µg/mL | 16 µg/mL |  | 
Cc1cc(OCCCN2CCOCC2)ccc1-c1ccn(CCC(C)(C(=O)NO)S(C)(=O)=O)c(=O)c1 (centres unmarked) [Example 228, N-hydroxy-2-methyl-4-{4-[2-methyl-4-(3-morpholin-4-ylpropoxy)phenyl]-2-oxopyridin-1(2H)-yl}-2-(methylsulfonyl)butanamide] | 16 µg/mL | 8 µg/mL |  | 

Structure (SMILES) | PA-7 (MIC) [1] | EC-1 (MIC) [2] | PA-7 (MIC) [1, 3] | EC-1 (MIC) [2, 3]
CC(CCn1ccc(-c2ccc(-c3ccc(S(N)(=O)=O)cc3)cc2)cc1=O)(C(=O)NO)S(C)(=O)=O (centres unmarked) [Example 278, 4-{4-[4′-(aminosulfonyl)biphenyl-4-yl]-2-oxopyridin-1(2H)-yl}-N-hydroxy-2-methyl-2-(methylsulfonyl)butanamide] | 16 µg/mL | 2 µg/mL |  | 
Cc1nnnn1-c1ccc(-c2ccn(CC[C@](C)(C(=O)NO)S(C)(=O)=O)c(=O)c2)cc1 [Example 378, (2R)-N-hydroxy-2-methyl-2-(methylsulfonyl)-4-{4-[4-(5-methyl-1H-tetrazol-1-yl)phenyl]-2-oxopyridin-1(2H)-yl}butanamide] | 64 µg/mL | 32 µg/mL |  | 
CC(CCn1ccc(-c2ccc(OCCCCO)c(Cl)c2)cc1=O)(C(=O)NO)S(C)(=O)=O (centres unmarked) [Example 238, 4-{4-[3-chloro-4-(4-hydroxybutoxy)phenyl]-2-oxopyridin-1(2H)-yl}-N-hydroxy-2-methyl-2-(methylsulfonyl)butanamide] | 4 µg/mL | 0.5 µg/mL |  | 
CC(CCn1ccc(OCCCC2CCCC2)cc1=O)(C(=O)NO)S(C)(=O)=O (centres unmarked) [Example 488, 4-[4-(3-cyclopentylpropoxy)-2-oxopyridin-1(2H)-yl]-N-hydroxy-2-methyl-2-(methylsulfonyl)butanamide] | 64 µg/mL | 8 µg/mL |  | 
Cc1ccc2cc(-c3ccn(CCC(C)(C(=O)NO)S(C)(=O)=O)c(=O)c3)ccc2n1 (centres unmarked) [Example 300, N-hydroxy-2-methyl-4-[4-(2-methylquinolin-6-yl)-2-oxopyridin-1(2H)-yl]-2-(methylsulfonyl)butanamide] | 8 µg/mL | 4 µg/mL |  | 
CC(CCn1ccc(-c2cccc(-n3cccn3)c2)cc1=O)(C(=O)NO)S(C)(=O)=O (centres unmarked) [Example 111, N-hydroxy-2-methyl-2-(methylsulfonyl)-4-{2-oxo-4-[3-(1H-pyrazol-1-yl)phenyl]pyridin-1(2H)-yl}butanamide] |  |  | > 64 µg/mL | > 64 µg/mL
C[C@@](CCn1ccc(-c2ccc3ncc(F)cc3c2)cc1=O)(C(=O)NO)S(C)(=O)=O [Example 316, (2R)-4-[4-(3-fluoroquinolin-6-yl)-2-oxopyridin-1(2H)-yl]-N-hydroxy-2-methyl-2-(methylsulfonyl)butanamide] | 2 µg/mL | 4 µg/mL |  | 
C[C@@](CCn1ccc(-c2ccc3c(c2)OCCCO3)cc1=O)(C(=O)NO)S(C)(=O)=O [Example 330, (2R)-4-[4-(3,4-dihydro-2H-1,5-benzodioxepin-7-yl)-2-oxopyridin-1(2H)-yl]-N-hydroxy-2-methyl-2-(methylsulfonyl)butanamide] | 4 µg/mL | 0.5 µg/mL |  | 
COc1ccc(F)cc1-c1ccn(CCC(C)(C(=O)NO)S(C)(=O)=O)c(=O)c1 (centres unmarked) [Example 173, 4-[4-(5-fluoro-2-methoxyphenyl)-2-oxopyridin-1(2H)-yl]-N-hydroxy-2-methyl-2-(methylsulfonyl)butanamide] |  |  | 64 µg/mL | 64 µg/mL
C[C@@](CCn1ccc(-c2ccc(-c3cccnn3)cc2)cc1=O)(C(=O)NO)S(C)(=O)=O [Example 453, (2R)-N-hydroxy-2-methyl-2-(methylsulfonyl)-4-[2-oxo-4-(4-pyridazin-3-ylphenyl)pyridin-1(2H)-yl]butanamide] | 8 µg/mL | 4 µg/mL |  | 
CC(CCn1ccc(-c2cccnc2)cc1=O)(C(=O)NO)S(C)(=O)=O (centres unmarked) [Example 219, N-hydroxy-2-methyl-2-(methylsulfonyl)-4-(2′-oxo-3,4′-bipyridin-1′(2′H)-yl)butanamide] | > 64 µg/mL | > 64 µg/mL |  | 
CN1Cc2ccc(-c3ccn(CCC(C)(C(=O)NO)S(C)(=O)=O)c(=O)c3)cc2C1=O (centres unmarked) [Example 162, N-hydroxy-2-methyl-4-[4-(2-methyl-3-oxo-2,3-dihydro-1H-isoindol-5-yl)-2-oxopyridin-1(2H)-yl]-2-(methylsulfonyl)butanamide] |  |  | > 64 µg/mL | > 64 µg/mL
CC(CCn1ccc(-c2ccccc2C(F)(F)F)cc1=O)(C(=O)NO)S(C)(=O)=O (centres unmarked) [Example 183, N-hydroxy-2-methyl-2-(methylsulfonyl)-4-{2-oxo-4-[2-(trifluoromethyl)phenyl]pyridin-1(2H)-yl}butanamide] |  |  | 32 µg/mL | 32 µg/mL
CC(CCn1ccc(-c2ccc(OCCCCCN3CCOCC3)cc2)cc1=O)(C(=O)NO)S(C)(=O)=O (centres unmarked) [Example 277, N-hydroxy-2-methyl-2-(methylsulfonyl)-4-[4-{4-[(5-morpholin-4-ylpentyl)oxy]phenyl}-2-oxopyridin-1(2H)-yl]butanamide] | 4 µg/mL | 1 µg/mL |  | 
CC(CCn1ccc(-c2ccccc2)cc1=O)(C(=O)NO)S(C)(=O)=O (centres unmarked) [Example 98, N-hydroxy-2-methyl-2-(methylsulfonyl)-4-(2-oxo-4-phenylpyridin-1(2H)-yl)butanamide] |  |  | 32 µg/mL | 64 µg/mL

Source: US8846933B2, “N-link hydroxamic acid derivatives useful as antibacterial agents” (Pfizer Inc., priority 2009, dated 2014)
